Source: patent EP0427799B1, “METHOD AND COMPOUNDS FOR AICA RIBOSIDE DELIVERY AND FOR LOWERING BLOOD GLUCOSE” (GENSIA, INC., priority 1989, dated 1990)
“And” between values parts separate entries of the source, which are not always exact repeats. Identical values can stand only once.

Key:
Blood glucose [1] = test: Hypoglycemic effects of oral AICA riboside prodrugs; assay type: in vivo, mice (Swiss Webster); conditions: equimolar amounts
Method: Male mice (Swiss Webster) were given equimolar amounts of either saline, AICA riboside, or compounds C1 or 10 of Table I orally. Blood glucose levels were measured one hour after administration by the glucose strip method (Chemstrip B.G.).

lactate and pyruvate = test: Blood lactate and pyruvate in rats; assay type: in vivo
Method: (§1) AICA riboside (100, 250 or 500 mg/kg) or saline (as a control) was administered intraperitoneally to rats. Sixty minutes after AICA riboside administration, the rats were sacrificed by cervical dislocation. Blood glucose was determined spectrophotometrically measuring O.D. at 340 nm by the hexokinase method using the glucose SR Reagent (Medical Analysis Systems, Inc.) Blood lactate and pyruvate were determined spectrophotometrically measuring O.D. at 340 nm using lactate dehydrogenase in the presence of excess NAD or NADH, respectively.

insulin = test: Blood insulin levels in rats; assay type: in vivo; conditions: high doses, early time points
Excerpt: This leads to investigation of the mechanism of AICA riboside induced hypoglycemia. […] This adenosine induced hyperglycemia is reversed by adenosine receptor antagonists (theophylline and sulphophenyltheophylline). Additionally, the AICA riboside-induced hypoglycemia is not blocked by theophylline. It is therefore concluded that the AICA riboside effect on plasma glucose is not mediated by adenosine. […] (See Figure 13).

Blood Glucose [2] = test: Effect on blood glucose in rabbits (hexokinase procedure); assay type: in vivo, Rabbits (New Zealand White); conditions: for Blood Glucose Change(+/-): 2H post-dose vs pre-dose; for Blood Glucose Change(+/-) / Blood Glucose 2H Post-Dose: individual rabbits
Method: Rabbits (New Zealand White) were given IV doses of AICA riboside, either 2 ml/kg (100 mg/kg) or 4 ml/kg (200 mg/kg). Blood was obtained by venipuncture before AICA riboside administration and two hours post-administration. Blood glucose concentrations before administration and two hours post-administration were measured by the hexokinase procedure (see Example K). The percent change (+/-) from pre-dose values are reported. Both dosage levels decreased blood glucose levels as compared with pre-AICA riboside administration levels.
as §1

liver glycogen = test: Effect on liver glycogen in mice; assay type: in vivo; conditions: 750 mg/Kg
Method: (See Figures 9 and 10A to 10D). The glucose lowering effects of AICA riboside are related temporally to the generation and maintenance of liver ZMP levels in rats. (See Figures 11A and 11B).
Swiss Webster mice were treated with saline (as a control) or 750 mg/kg of AICA riboside administered intraperitoneally, six animals per group. The mice were sacrificed one hour post-administration The livers were removed and extracted. Liver glycogen was determined by the method of Dubois, et al., Anal. Chem. 28:350-356 (1956). Glucose was measured by the hexokinase method (See Example K).

hippocampal CA-1 cells = test: Gerbil model of 5 minutes global brain ischemia followed by reperfusion; assay type: in vivo; conditions: ICV and IP administration
Excerpt: The claimed prodrugs, by delivering AICA riboside should provide similar efficacy. […] Both intracerebroventricular (ICV) and IP administration of AICA riboside was effective in the gerbil model In addition to the gerbil, two different rat models of focal ischemia were also used to evaluate AICA-riboside. One model employed partial reperfusion and the second total reperfusion.

skin flap = test: Protection against ischemic injury in skin flap model; assay type: in vivo, rats; conditions: skin flap viability 3 days post-surgery; pretreatment 45 minutes before surgery (SOD at time of surgery)
Method: Compounds were tested for their activity in protecting against ischemic injury in a skin flap model in rats.
Animals were pretreated with AICA riboside or AICA riboside plus adenosine deaminase (ADA) 45 minutes before surgery or, as a positive control, superoxide dismutase (SOD) was used at the time of surgery. A skin flap was raised on the abdomen of a rat for 6 hours and then sewn down. The percent viability of the flaps was evaluated at 3 days post-surgery.
This effect was not as pronounced in the presence of ADA, supporting the importance of adenosine's protective role in this setting.

[3] = 2ml (100 mg/kg) IV, rabbit 10 not included

`NC(=O)c1ncn([C@@H]2O[C@H](CO)[C@@H](O)[C@H]2O)c1N` [AICA riboside, 1-β-D-ribofuranosyl-5-aminoimidazole-4-carboxamide] was tested, and the “hypoglycemia after oral administration” value (Blood glucose [1]) was “did not produce detectable hypoglycemia”, the “lactate to pyruvate ratio” value (lactate and pyruvate) was “not changed” and the “liver glycogen, serum lactate and pyruvate” value (lactate and pyruvate) was “elevation of liver glycogen and of serum lactate and pyruvate”. The blood insulin levels (insulin) was “suppress blood insulin levels”, the “Blood Glucose Change(+/-)” value (Blood Glucose [2]; 2ml (100 mg/kg) IV) was -25 mg% and +102* mg% and -24 mg% (2×) and -28 mg% and +10 mg% and -22 mg% and -23 mg% and -11 mg% and -53 mg% and the “Blood Glucose 2H Post-Dose” value (Blood Glucose [2]; 2ml (100 mg/kg) IV) was 93 mg% and 215* mg% and 87 mg% and 89 mg% (2×) and 122 mg% and 96 mg% and 98 mg% and 106 mg% and 99 mg%. The “Blood Glucose 2H Post-Dose, Mean” value (Blood Glucose [2]; [3]) was 98 mg%, the “Blood Glucose Change(+/-), Mean” value (Blood Glucose [2]; [3]) was -22 mg% and the “Blood Glucose Change(+/-)” value (Blood Glucose [2]; 4ml (200mg)/kg IV) was -14 mg% and -76 mg% and -42 mg% and -69 mg% and -59 mg%. For the same molecule, the “Blood Glucose 2H Post-Dose” value (Blood Glucose [2]; 4ml (200mg)/kg IV) was 100 mg% and 32** mg% and 79 mg% and 56 mg% and 62 mg%, the “Blood Glucose 2H Post-Dose, Mean” value (Blood Glucose [2]; 4ml (200mg)/kg IV) was 66 mg% and the “Blood Glucose Change(+/-), Mean” value (Blood Glucose [2]; 4ml (200mg)/kg IV) was -52 mg%. For the same molecule, the “increase of liver glycogen” value (liver glycogen) was 55%, the “degeneration of hippocampal CA-1 cells” value (hippocampal CA-1 cells) was “prevented the degeneration of hippocampal CA-1 cells” and the “% Viable” value (skin flap) was 75%.
